Measured values from patent publication US20120076781A1, “METHODS OF TREATING CANCERS WITH HER3 ANTISENSE OLIGONUCLEOTIDES” (ENZON PHARMACEUTICALS, INC., priority 2009, published 2012).
In the oligonucleotide strings, read from the 5' end, every base follows the letter of its sugar. An asterisk marks phosphorothioate; unmarked linkages are phosphodiester. Other units and linkages are bracketed, terminal groups are in braces. A string of capitals states the bases alone. l = locked nucleic acid (LNA); [5mC] = 5-methylcytosine; d = 2'-deoxy (DNA)

How the values were obtained:
Mouse HER3 mRNA = experiment: HER3 mRNA knockdown in liver of nude mice bearing 15PC3 xenografts, qd x 5 (qRT-PCR); assay type: in vivo; settings: i.v.
Description: (§1) To evaluate the knockdown efficacy of the HER3 oligomeric compounds in vivo, the female nude mice bearing 15PC3 xenografts developed by subcutaneous injection of 5×10^6 cells/mouse into the right axillary flank, were injected intravenously with the oligomers at various doses and injection schedules (i.e. single dose, qd, q3d, q4d). Scrambled oligomer SEQ ID NO: 236 served as a negative control. 24 hours after the last injection, the mice were euthanized and liver and tumor tissues were collected in RNAlater solution (Ambion). Total RNA was purified from the tissues and the levels of HER3 mRNA were determined by quantitative reverse transcription-real time PCR (qRT-PCR) using the QuantiTect Probe RT-PCR kit (Cat#: 204443; Qiagen). GAPDH mRNA served as an internal control.
(§2) 200 ng of total RNA was used in the PCR reaction. The data analyses were performed by using the ABI-7500 PCR Fast System included software.
(§3) Data in Table 5 are presented as % HER3 mRNA levels relative to saline treated controls in liver and tumor samples after i.v. dosing of animals on 5 consecutive days with oligonucleotides in the doses indicated.

human HER3 mRNA = experiment: HER3 mRNA knockdown in 15PC3 xenograft tumor in nude mice, qd x 5 (qRT-PCR); assay type: in vivo; settings: i.v., relative to saline controls
Description: as §1, §2, §3

HER3 mRNA [1] = experiment: HER3 mRNA knockdown in 15PC3 xenograft tumor, different dosing cycle; assay type: in vivo, human; settings: every third day
Description: as §1
(§4) The knockdown efficacy of oligomers was evaluated in vivo in nude mice bearing xenograft tumors derived from 15PC3 cells or A549 cells (NSCLC) or N87 cells (gastric carcinoma) using a similar protocol to the one described above in Example 11. Oligomers were administered by injection every third day in 2-4 doses. Tissues were harvested 3 or 4 days after the last injection.
(§5) Data in Tables 6 and 7 are presented as % HER3 mRNA or HIF-1 alpha mRNA relative to saline treated controls in liver and tumor samples after i.v. dosing of animals with the indicated oligomers.

HIF-1 alpha mRNA = HIF-1 alpha mRNA in 15PC3 xenograft tumor, different dosing cycle; assay type: in vivo, human; settings: 60.2 x 2 or 3 mg/kg i.v., every third day
Description: as §1, §4, §5

HER3 mRNA [2] = experiment: HER3 mRNA knockdown in liver of xenograft-bearing nude mice, different dosing cycle; assay type: in vivo, mouse; settings: for Liver HER3 mRNA relative to saline treated controls: 15PC3 xenograft mice, every third day
Description: as §1
as §4, with “Oligomers were administered by injection every third day in 2-4 doses.” left out
as §5

HER3 mRNA [3] = experiment: HER3 mRNA knockdown in A549 (NSCLC) xenograft tumor; assay type: in vivo, human; settings: 35 mg/kg, q4d x 3, i.v.
Description: as §1, §4, §5

HER3 mRNA [4] = experiment: HER3 mRNA knockdown in N87 (gastric carcinoma) xenograft tumor; assay type: in vivo, human; settings: 25 mg/kg, q3d x 5, i.v.
Description: as §1
as §4, with “Oligomers were administered by injection every third day in 2-4 doses.” left out
as §5

[5] = tested on: gefitinib-resistant HCC827 cells; experiment: Colony growth of gefitinib-resistant HCC827R cells (MTT staining, colony count); assay type: cell-based, human; settings: 1 μM, 10 days
Description: (§6) HCC827 lung adenocarcinoma cells (ATCC CRL-2868) were maintained at 37° C. in a humidified atmosphere of 5% CO2 and 95% air in RPMI medium supplemented with 10% fetal bovine serum. To generate gefitinib resistance, cells were treated with increasing amounts of gefitinib (up to 500 nM) for a period of 3 months.
(§7) HCC287 and HCC287R cells were plated in duplicate at 200 cells/well of a 6-well plate and incubated for 24 hours. Cells were treated with 1 μM of ON180 (SEQ ID NO: 180) and incubated for 10 days, after which cells were stained with MTT and the number of colonies counted. Percent of control was calculated for both HCC827 and […] cells.

[6] = tested on: HCC827 gefitinib-sensitive cells; experiment: Colony growth of gefitinib-sensitive HCC827 cells (MTT staining, colony count); assay type: cell-based, human; settings: 1 μM, 10 days
Description: as §6, §7

[7] = tested on: HCC827 human cell line xenograft; experiment: Tumor growth in mouse xenograft model of human non-small cell lung cancer; assay type: in vivo; settings: at approximately 31 days
HER3 and P-HER3 = experiment: Feedback upregulation of HER3 and P-HER3 by lapatinib in BT474, SKBR3 and MDA453 cells; assay type: cell-based, human; settings: lapatinib 1 μM, trastuzumab 10 μg/ml, SEQ ID NO: 180 5 μM, 0-48 hours

## TSASGScScStSgStScSaScStStSCSTSC (antisense lT*lA*lG*dC*dC*dT*dG*dT*dC*dA*dC*dT*dT*l[5mC]*lT*l[5mC]) [SEQ ID NO: 180, β-D-oxy-LNA/DNA phosphorothioate gapmer antisense oligonucleotide targeting HER3]
Mouse HER3 mRNA; 19.8 mg/kg
  HER3 mRNA Liver: 1.7 ± 0.6 % of Sal ctrl
Mouse HER3 mRNA; 25.6 mg/kg
  HER3 mRNA Liver: 3 ± 0.3 % of Sal ctrl
Mouse HER3 mRNA; 31.3 mg/kg
  HER3 mRNA Liver: 1.6 ± 0.3 % of Sal ctrl
Mouse HER3 mRNA; 66 mg/kg
  HER3 mRNA Liver: 6 ± 5.3 % of Sal ctrl
Mouse HER3 mRNA; 85.3 mg/kg
  HER3 mRNA Liver: 1 ± 0.3 % of Sal ctrl
Human HER3 mRNA; 19.8 mg/kg
  HER3 mRNA Tumor: 83.1 ± 19.5%
Human HER3 mRNA; 25.6 mg/kg
  HER3 mRNA Tumor: 65 ± 20.2%
Human HER3 mRNA; 31.3 mg/kg
  HER3 mRNA Tumor: 37 ± 5.8%
Human HER3 mRNA; 66 mg/kg
  HER3 mRNA Tumor: 32.3 ± 9.7%
Human HER3 mRNA; 85.3 mg/kg
  HER3 mRNA Tumor: 25.8 ± 4.1%
HER3 mRNA [1]; 60.2 x 4 mg/kg i.v.
  Tumor HER3 mRNA relative to saline treated controls: 54.2 ± 9.1%
HER3 mRNA [1]; 60.2 x 2 or 3 mg/kg i.v.
  Tumor HER3 mRNA relative to saline treated controls: 47.1 ± 2.2%
HIF-1 alpha mRNA
  Tumor Hif1A mRNA relative to saline treated controls: 101 ± 7.3%
HER3 mRNA [2]; 60.2 x 4 mg/kg i.v.
  Liver HER3 mRNA relative to saline treated controls: 31.8 ± 5%
HER3 mRNA [2]; 60.2 x 2 or 3 mg/kg i.v.
  Liver HER3 mRNA relative to saline treated controls: 6.9 ± 3.6%
HER3 mRNA [2]; A549 xenograft mice, 35 mg/kg, q4d x 3, i.v.
  HER3 Liver: 31.8 ± 5.7 % saline control
HER3 mRNA [2]; N87 xenograft mice, 25 mg/kg, q3d x 5, i.v.
  HER3 Liver: 24.7 ± 3.1 % saline control
HER3 mRNA [3]
  HER3 Tumor: 54.6 ± 15.2 % saline control
HER3 mRNA [4]
  HER3 Tumor: 46.6 ± 13.4 % saline control
[5]
  reduction in cell growth as compared to the untreated control: greater than 80%
[6]
  reduction in cell growth as compared to the untreated control: about 50%
[7]; 30 mg/kg i.v.
  Mean tumor volume reduced vs. saline control: 65.5%
[7]; 45 mg/kg i.v.
  Mean tumor volume reduced vs. saline control: 81.3%
HER3 and P-HER3
  prevention of feedback upregulation of HER3 and P-HER3 expression by lapatinib: able to prevent feedback upregulation of HER3 and P-HER3 expression by lapatinib
